Assay results: patent US8951993B2, “Phosphorus containing compounds as protein kinase inhibitors” (Jiangsu Hansoh Pharmaceutical Co., Ltd., priority 2011, dated 2015)

Assays:
H2228 = assay: Cell proliferation assay (MTS / BrdU), H2228; type: cell-based; settings: Homo sapiens, NCI-H2228; 72 hours, 2% FBS
Experimental: (§1) Karpas299 and SU-DHL-1 cells were purchased from Deutsche Sammlung von Mikroorganismen and Zellkulturen (Germany). H2228 was purchased from American Type Culture Collection (USA). All cells were cultured in the recommended medium and serum concentration. Cells were maintained at 37° C. in a humidified atmosphere with 5% CO2. For ALK kinase phosphorylation, cells were seeded in 96-well plates overnight in medium supplemented with 10% fetal bovine serum […]. After 24 hours, the medium was removed and cells were cultured in serum-free medium at 37° C. in the presence of various concentrations of the test articles for 1 hour. After incubation with the tested articles, cells were washed once with HBSS supplemented with 1 mM Na3VO4 and protein lysates were generated. Subsequently, phosphorylation of ALK was assessed by a sandwich ELISA method using an immobilized anti-total-ALK antibody and an anti-phospho-ALK antibody (pY1604) as a detection antibody. IC50 value was calculated using median-effect method. (Chou 2006).
(§2) For cell proliferation assay, cells were seeded in 96-well pates at low density at 37° C. in medium supplemented with 10% FBS and after 24 hours were switched to low serum medium (2% FBS). Cells were further incubated in the presence of the test articles at various concentrations at 37° C. for 72 hours. Two assays were employed to determine the relative cell numbers. One is a 3-(4,5-dimethylthiazol-2-yl)-5-(3-carboxymethoxyphenyl)-2-(4-sulfophenyl)-2H-tetrazolium (MTS) assay using a CellTiter 96® Aqueous Non-Radioactive Cell Proliferation kit (Promega), and the other is a BrdU incorporation assay using a DELFIA® Cell Proliferation Kit (Perkin Elmer). IC50 value was calculated using median-effect method (Chou 2006).

ALK [1] = target: T1, ALK (Homo sapiens, UniProt Q9UM73); assay: Inhibition of ALK phosphorylation (sandwich ELISA, pY1604), cell line not given; type: cell-based; parameters: fused on or other part: Q9HC35 (Echinoderm microtubule-associated protein-like 4); settings: 1 hour, serum-free
Experimental: as §1
Target sequence in this assay (Q9UM73 1058-1620 limits assumed): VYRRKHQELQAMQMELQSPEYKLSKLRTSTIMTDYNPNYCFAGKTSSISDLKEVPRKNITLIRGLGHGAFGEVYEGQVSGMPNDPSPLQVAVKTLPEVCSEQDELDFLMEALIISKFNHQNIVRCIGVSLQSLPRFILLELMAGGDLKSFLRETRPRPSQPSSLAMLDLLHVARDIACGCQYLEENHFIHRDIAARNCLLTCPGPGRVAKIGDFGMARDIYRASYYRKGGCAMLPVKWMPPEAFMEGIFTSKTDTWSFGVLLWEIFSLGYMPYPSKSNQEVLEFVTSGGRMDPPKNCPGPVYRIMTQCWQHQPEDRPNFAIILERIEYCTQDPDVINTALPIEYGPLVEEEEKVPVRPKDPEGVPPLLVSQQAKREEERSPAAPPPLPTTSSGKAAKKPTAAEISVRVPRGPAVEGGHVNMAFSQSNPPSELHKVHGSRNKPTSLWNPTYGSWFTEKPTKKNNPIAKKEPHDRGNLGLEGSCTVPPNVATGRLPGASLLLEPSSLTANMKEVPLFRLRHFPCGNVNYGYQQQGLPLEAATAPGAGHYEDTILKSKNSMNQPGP

ALK [2] = target: T1, ALK; assay: ALK enzyme activity assay (HTRF KinEASE); type: biochemical; parameters: purchased Millipore Company (Billerica, Mass., USA); settings: ATP 25 μM, 30° C. 30 minutes
Experimental: ALK Enzyme Activity Assay:
ALK kinase was purchased from Millipore Company (Billerica, Mass., USA). HTRF®KinEASET™ was purchased from Cisbio Company (Bedford, Mass., USA). The assay was conducted according to the procedure provided in the assay kit. In brief, incubation was carried out in the kinase buffer containing ALK (0.3 ng/μL), ATP (25 μM), TK substrate-biotin (10 μM), DTT (1 mM), MgCl2 (5 mM), MnCl2 (5 mM) in the presence of the tested articles at various concentrations in 384-well plate at 30° C. for 30 minutes. The reaction was stopped by addition of Sa-XL665 in EDTA solution, and the phosphorylated substrate was detected with a proprietary phospho-specific monoclonal antibody labeled with Eu^3+-Cryptate and a proprietary biotinylated kinase substrate detected using XL665 labeled streptavidin. IC50 value was calculated using median-effect method (Chou 2006).
Target sequence in this assay (Q9UM73 19-1620): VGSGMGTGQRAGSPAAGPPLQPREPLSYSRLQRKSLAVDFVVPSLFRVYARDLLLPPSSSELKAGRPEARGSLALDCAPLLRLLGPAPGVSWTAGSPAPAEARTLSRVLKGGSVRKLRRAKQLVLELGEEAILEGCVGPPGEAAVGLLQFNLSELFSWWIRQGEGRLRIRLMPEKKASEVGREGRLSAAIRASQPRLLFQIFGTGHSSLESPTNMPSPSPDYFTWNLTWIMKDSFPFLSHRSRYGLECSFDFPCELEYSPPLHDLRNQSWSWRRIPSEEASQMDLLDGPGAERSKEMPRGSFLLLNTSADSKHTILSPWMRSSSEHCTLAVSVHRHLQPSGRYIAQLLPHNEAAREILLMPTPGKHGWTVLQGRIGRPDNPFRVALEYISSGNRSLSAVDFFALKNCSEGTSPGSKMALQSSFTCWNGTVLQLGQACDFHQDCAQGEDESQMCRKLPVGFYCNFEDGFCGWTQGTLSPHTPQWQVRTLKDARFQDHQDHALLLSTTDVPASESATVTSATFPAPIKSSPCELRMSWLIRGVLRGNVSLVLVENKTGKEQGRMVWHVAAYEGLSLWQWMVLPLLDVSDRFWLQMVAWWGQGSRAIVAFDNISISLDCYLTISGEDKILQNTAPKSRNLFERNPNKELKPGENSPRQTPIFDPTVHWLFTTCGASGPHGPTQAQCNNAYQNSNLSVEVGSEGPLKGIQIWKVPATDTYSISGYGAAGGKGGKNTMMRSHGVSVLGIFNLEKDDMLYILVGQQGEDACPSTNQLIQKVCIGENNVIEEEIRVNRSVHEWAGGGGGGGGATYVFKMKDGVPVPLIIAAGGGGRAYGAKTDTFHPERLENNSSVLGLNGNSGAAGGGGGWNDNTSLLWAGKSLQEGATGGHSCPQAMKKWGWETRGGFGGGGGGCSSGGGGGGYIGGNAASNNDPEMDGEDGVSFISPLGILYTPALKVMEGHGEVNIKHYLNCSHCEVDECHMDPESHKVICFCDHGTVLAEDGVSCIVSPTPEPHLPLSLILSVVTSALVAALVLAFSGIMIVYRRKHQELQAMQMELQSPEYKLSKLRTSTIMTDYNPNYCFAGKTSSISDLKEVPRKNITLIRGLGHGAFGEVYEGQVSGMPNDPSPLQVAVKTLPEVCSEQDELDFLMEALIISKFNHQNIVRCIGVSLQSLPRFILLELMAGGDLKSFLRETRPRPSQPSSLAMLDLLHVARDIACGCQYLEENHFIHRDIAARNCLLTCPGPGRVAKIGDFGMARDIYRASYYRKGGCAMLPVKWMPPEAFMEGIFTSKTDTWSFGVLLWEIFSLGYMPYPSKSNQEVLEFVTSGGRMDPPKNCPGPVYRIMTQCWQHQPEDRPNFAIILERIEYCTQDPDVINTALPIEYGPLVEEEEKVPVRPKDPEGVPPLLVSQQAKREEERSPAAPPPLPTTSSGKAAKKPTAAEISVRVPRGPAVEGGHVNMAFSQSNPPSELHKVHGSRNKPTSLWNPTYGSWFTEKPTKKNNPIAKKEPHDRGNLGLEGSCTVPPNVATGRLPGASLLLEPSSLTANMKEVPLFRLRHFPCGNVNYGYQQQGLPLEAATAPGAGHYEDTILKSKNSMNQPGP

SU-DHL-1 = assay: Cell proliferation assay (MTS / BrdU), SU-DHL-1; type: cell-based; settings: Homo sapiens, 72 hours, 2% FBS
Experimental: as §1, §2

[3] = Pharmacokinetic assay, intravenous and oral administration; type: in vivo, Sprague-Dawley rats or beagle dogs; settings: plasma
Experimental: The tested articles were given to Sprague-Dawley rats or beagle dogs by intravenous and oral administration. Plasma samples were prepared from blood samples which were collected at various time points. The plasma concentrations of the tested articles were determined by specific LC-MS/MS analytical methods. Pharmacokinetic parameters were calculated with WinNonlin®.

Karpas299 = assay: Cell proliferation assay (MTS / BrdU), Karpas299; type: cell-based; settings: Homo sapiens, KARPAS-299; 72 hours, 2% FBS
Experimental: as §1, §2

SMILES | IC50 (ALK [2]) | IC50 (SU-DHL-1) | further results
CC(Oc1cc(-c2cnn(C3CCN(CP(C)(C)=O)CC3)c2)cnc1N)c1c(Cl)ccc(F)c1Cl (stereo not drawn) [Example 2, 3-[1-(2,6-dichloro-3-fluoro-phenyl)ethoxy]-5-[1-[1-(dimethylphosphorylmethyl)-4-piperidyl]pyrazol-4-yl]pyridin-2-amine] | < 100 nM | – | IC50 (H2228): 1000 to 5000 nM; IC50 (ALK [1]): < 500 nM
CC(Oc1cc(-c2cnn(CP(C)(C)=O)c2)cnc1N)c1c(Cl)ccc(F)c1Cl (stereo not drawn) [Example 3, 3-[1-(2,6-dichloro-3-fluoro-phenyl)ethoxy]-5-[1-(dimethylphosphorylmethyl)pyrazol-4-yl]pyridin-2-amine] | 100 to 500 nM | – | –
CC(Oc1cc(-c2ccc(CN(CP(C)(C)=O)CP(C)(C)=O)cc2)cnc1N)c1c(Cl)ccc(F)c1Cl (stereo not drawn) [Example 4, 5-[4-[(bis(dimethylphosphorylmethyl)amino)methyl]phenyl]-3-[1-(2,6-dichloro-3-fluoro-phenyl)ethoxy]pyridin-2-amine] | 100 to 500 nM | – | IC50 (H2228): 1000 to 5000 nM
CC(Oc1cc(-c2ccc(CNCP(C)(C)=O)cc2)cnc1N)c1c(Cl)ccc(F)c1Cl (stereo not drawn) [Example 5, 3-[1-(2,6-dichloro-3-fluoro-phenyl)ethoxy]-5-[4-[(dimethylphosphorylmethylamino)methyl]phenyl]pyridin-2-amine] | 100 to 500 nM | 1000 to 5000 nM | IC50 (H2228): 100 to 500 nM
CC(Oc1cc(-c2cncc(P(C)(C)=O)c2)cnc1N)c1c(Cl)ccc(F)c1Cl (stereo not drawn) [Example 6, 3-[1-(2,6-dichloro-3-fluoro-phenyl)ethoxy]-5-(5-dimethylphosphoryl-3-pyridyl)pyridin-2-amine] | 100 to 500 nM | 1000 to 5000 nM | IC50 (H2228): 100 to 500 nM
CC(Oc1nc(-c2ccc(P(C)(C)=O)cc2)cnc1N)c1c(Cl)ccc(F)c1Cl (stereo not drawn) [Example 11, 3-[1-(2,6-dichloro-3-fluoro-phenyl)ethoxy]-5-(4-dimethylphosphorylphenyl)pyrazin-2-amine] | 100 to 500 nM | 100 to 500 nM | –
COc1cc(-c2cnc(N)c(OC(C)c3c(Cl)ccc(F)c3Cl)c2)ccc1P(C)(C)=O (stereo not drawn) [Example 12, 3-[1-(2,6-dichloro-3-fluoro-phenyl)ethoxy]-5-(4-dimethylphosphoryl-3-methoxy-phenyl)pyridin-2-amine] | < 100 nM | – | –
CC(Oc1cc(-c2ccc(P(C)(C)=O)cc2C(F)(F)F)cnc1N)c1c(Cl)ccc(F)c1Cl (stereo not drawn) [Example 15, 3-[1-(2,6-dichloro-3-fluoro-phenyl)ethoxy]-5-[4-dimethylphosphoryl-2-(trifluoromethyl)phenyl]pyridin-2-amine] | 500 to 1000 nM | – | –
CC(Oc1cc(-c2ccc(P(C)(C)=O)nc2)cnc1N)c1c(Cl)ccc(F)c1Cl (stereo not drawn) [Example 16, 3-[1-(2,6-dichloro-3-fluoro-phenyl)ethoxy]-5-(6-dimethylphosphoryl-3-pyridyl)pyridin-2-amine] | 500 to 1000 nM | 1000 to 5000 nM | –
CC(Oc1cc(-c2ccc(P(C)(C)=O)cc2O)cnc1N)c1c(Cl)ccc(F)c1Cl (stereo not drawn) [Example 17, 2-[6-amino-5-[1-(2,6-dichloro-3-fluoro-phenyl)ethoxy]-3-pyridyl]-5-dimethylphosphoryl-phenol] | 100 to 500 nM | < 100 nM | –
CC(Oc1cc(-c2ccc(P(C)(C)=O)cn2)cnc1N)c1c(Cl)ccc(F)c1Cl (stereo not drawn) [Example 18, 3-[1-(2,6-dichloro-3-fluoro-phenyl)ethoxy]-5-(5-dimethylphosphoryl-2-pyridyl)pyridin-2-amine] | 100 to 500 nM | 100 to 500 nM | IC50 (Karpas299): 100 to 500 nM
CC(Oc1cc(-c2ccc(P(C)(C)=O)cc2OC(F)(F)F)cnc1N)c1c(Cl)ccc(F)c1Cl (stereo not drawn) [Example 20, 3-[1-(2,6-dichloro-3-fluoro-phenyl)ethoxy]-5-[4-dimethylphosphoryl-2-(trifluoromethoxy)phenyl]pyridin-2-amine] | 500 to 1000 nM | 100 to 500 nM | –
CC(Oc1cc(-c2ccc(P(C)(C)=O)cc2)cnc1N)c1cc(Cl)ccc1Cl (stereo not drawn) [Example 21, 3-[1-(2,5-dichlorophenyl)ethoxy]-5-(4-dimethylphosphorylphenyl)pyridin-2-amine] | 100 to 500 nM | < 100 nM | –
CCOP(=O)(OCC)c1ccc(-c2cnc(N)c(OC(C)c3cc(F)ccc3Cl)c2)cc1 (stereo not drawn) [Example 26, 3-[1-2-(2-chloro-5-fluoro-phenyl)ethoxy]-5-(4-diethoxyphosphorylphenyl)pyridine-2-amine] | 500 to 1000 nM | – | –
CC(Oc1cc(-c2ccc(P(=O)(O)O)cc2)cnc1N)c1cc(F)ccc1Cl (stereo not drawn) [Example 27, [4-(6-amino-5-[1-(2-chloro-5-fluoro-phenyl)ethoxyl]-3-pyridyl]phenyl]phosphonic acid] | < 100 nM | 1000 to 5000 nM | –
CCOP(=O)(OCC)c1ccc(-c2cnc(N)c(O[C@H](C)c3c(Cl)ccc(F)c3Cl)c2)cc1 [Example 28, 3-[(1R)-1-2-(2,6-dichloro-3-fluoro-phenyl)ethoxy]-5-(4-diethoxyphosphorylphenyl)pyridine-2-amine] | 100 to 500 nM | 1000 to 5000 nM | –

Further lines, with some results ahead:

IC50 (ALK [2]) | IC50 (SU-DHL-1) | SMILES | further results
100 to 500 nM | – | CC(Oc1cc(-c2ccc(COP(C)(C)=O)cc2)cnc1N)c1c(Cl)ccc(F)c1Cl (stereo not drawn) [Example 7, 3-[1-(2,6-dichloro-3-fluoro-phenyl)ethoxy]-5-[4-(dimethylphosphoryloxymethyl)phenyl]pyridin-2-amine] | –
1000 to 5000 nM | – | CC(Oc1cc(-c2ccc(P(C)(C)=O)c3ccccc23)cnc1N)c1c(Cl)ccc(F)c1Cl (stereo not drawn) [Example 9, 3-[1-(2,6-dichloro-3-fluoro-phenyl)ethoxy]-5-(4-dimethylphosphoryl-1-naphthyl)pyridin-2-amine] | –
1000 to 5000 nM | – | COc1cc(-c2cnc(N)c(OC(C)c3c(Cl)ccc(F)c3Cl)c2)c(F)cc1P(C)(C)=O (stereo not drawn) [Example 10, 3-[1-(2,6-dichloro-3-fluoro-phenyl)ethoxy]-5-(4-dimethylphosphoryl-2-fluoro-5-methoxy-phenyl)pyridin-2-amine] | –
< 100 nM | 100 to 500 nM | CC(Oc1cc(-c2ccc(P(C)(C)=O)cc2F)cnc1N)c1c(Cl)ccc(F)c1Cl (stereo not drawn) [Example 13, 3-[1-(2,6-dichloro-3-fluoro-phenyl)ethoxy]-5-(4-dimethylphosphoryl-2-fluoro-phenyl)pyridin-2-amine] | half-life ([3]; after oral administration in rats or dogs): > 3 h; bioavailability ([3]; oral administration in rats or dogs, read-out: oral bioavailabilty): > 20%; IC50 (Karpas299): < 100 nM
1000 to 5000 nM | 1000 to 5000 nM | CC(Oc1cc(-c2ccc(P(C)(C)=O)c(F)c2)cnc1N)c1c(Cl)ccc(F)c1Cl (stereo not drawn) [Example 14, 3-[1-(2,6-dichloro-3-fluoro-phenyl)ethoxy]-5-(4-dimethylphosphoryl-3-fluoro-phenyl)pyridin-2-amine] | –
100 to 500 nM | 100 to 500 nM | CC(Oc1cc(-c2ccc(P(C)(C)=O)cc2Cl)cnc1N)c1c(Cl)ccc(F)c1Cl (stereo not drawn) [Example 19, 5-(2-chloro-4-dimethylphosphoryl-phenyl)-3-[1-(2,6-dichloro-3-fluoro-phenyl)ethoxy]pyridin-2-amine] | –
100 to 500 nM | < 100 nM | CC(Oc1cc(-c2ccc(P(C)(C)=O)cc2)cnc1N)c1cc(F)ccc1Cl (stereo not drawn) [Example 22, 3-[1-(2-chloro-5-fluoro-phenyl)ethoxy]-5-(4-dimethylphosphorylphenyl)pyridin-2-amine] | –
< 100 nM | 1000 to 5000 nM | C[C@@H](Oc1cc(-c2ccc(P(=O)(O)O)cc2)cnc1N)c1c(Cl)ccc(F)c1Cl [Example 29, [4-(6-amino-5-[(1R)-1-(2,6-dichloro-3-fluoro-phenyl)ethoxyl]-3-pyridyl]phenyl]phosphonic acid] | –
